In patent US10301280B2 (Plexxikon Inc., priority 2012, dated 2019):

target: c-kit kinase (Homo sapiens (Human), UniProt P10721); test: c-Kit biochemical assay (AlphaScreen); conditions: c-kit biochemical inhibitory activity
Description: Assays for biochemical cell-based activity of c-kit kinase are known in the art, for example, as described in U.S. Pat. Nos. 7,498,342 and 7,846,941, the disclosures of which are hereby incorporated by reference as it relates to such assays. The c-kit (or kinase domain thereof) is an active kinase in AlphaScreen. IC50 values are determined with respect to inhibition of c-Kit kinase activity, where inhibition of phosphorylation of a peptide substrate is measured as a function of compound concentration. Compounds to be tested were dissolved in DMSO to a concentration of 20 mM. These were diluted 30 μl into 120 μl of DMSO (4 mM) and 1 μl was added to an assay plate. These were then serially diluted 1:3 (50 μl to 100 μl DMSO) for a total of 8 points. Plates were prepared such that each kinase reaction is 20 μl in 1× kinase buffer (50 mM HEPES, pH 7.2, 5 mM MgCl2, 5 mM MnCl2, 0.01% NP-40, 0.2% BSA), 5% DMSO and 10 µM ATP. Substrate was 100 nM biotin-(E4Y)3 (Open Source Biotech, Inc.). C-kit kinase was at 0.1 ng per sample. After incubation of the kinase reaction for 1 hour at room temperature, 5 μl of donor beads (Streptavidin coated beads (Perkin Elmer Life Science) final concentration 1 μg/ml) in stop buffer (50 mM EDTA in 1× kinase buffer) was added, the sample was mixed and incubated for 20 minutes at room temperature before adding 5 μl of acceptor beads (PY20 coated beads (Perkin Elmer Life Science) final concentration 1 μg/ml) in stop buffer. The samples were incubated for 60 minutes at room temperature and the signal per well was read on AlphaQuest reader. Phosphorylated substrate results in binding of the PY20 antibody and association of the donor and acceptor beads such that signal correlates with kinase activity. The signal vs. compound concentration was used to determine the IC50.
Compounds were also tested using a similar assay with a 10-fold higher ATP concentration. For these samples, compounds to be tested were dissolved in DMSO to a concentration of 20 mM. These were diluted 30 μl into 120 μl of DMSO (4 mM) and 1 μl was added to an assay plate. These were then serially diluted 1:3 (50 μl to 100 μl DMSO) for a total of 8 points. Plates were prepared such that each kinase reaction is 20 μl in 1× kinase buffer (25 mM HEPES, pH 7.5, 2 mM MgCl2, 2 mM MnCl2, 0.01% Tween-20, 1 mM DTT, and 0.001% BSA), 5% DMSO and 100 µM ATP. Substrate was 30 nM biotin-(E4Y)10 (Upstate Biotech, Cat#12-440). C-kit kinase was at 1 ng per sample. After incubation of the kinase reaction for 1 hour at room temperature, 5 μl of donor beads (Streptavidin coated beads (Perkin Elmer Life Science) final concentration 10 μg/ml) in stop buffer (25 mM HEPES pH 7.5, 100 mM EDTA, 0.3% BSA) was added, the sample was mixed and incubated for 20 minutes at room temperature before adding 5 μl of acceptor beads (PY20 coated beads (Perkin Elmer Life Science) final concentration 10 μg/ml) in stop buffer. The samples were incubated for 60 minutes at room temperature and the signal per well was read on AlphaQuest or Envision reader (Perkin Elmer Life Science). Phosphorylated substrate results in binding of the PY20 antibody and association of the donor and acceptor beads such that signal correlates with kinase activity. The signal vs. compound concentration was used to determine the IC50.
The c-kit enzyme used in the above assay was either obtained from Cell Signaling Technology (Cat. #7754) or was prepared as follows: A plasmid encoding kit (DNA and encoded protein sequences shown below) was engineered using common polymerase chain reaction (PCR) methods. Complementary DNA cloned from various human tissues were purchased from Invitrogen, and these were used as substrates in the PCR reactions. Specific custom synthetic oligonucleotide primers were designed to initiate the PCR product, and also to provide the appropriate restriction enzyme cleavage sites for ligation with the plasmids. […]

Sequence of c-kit kinase (P10721 26-976): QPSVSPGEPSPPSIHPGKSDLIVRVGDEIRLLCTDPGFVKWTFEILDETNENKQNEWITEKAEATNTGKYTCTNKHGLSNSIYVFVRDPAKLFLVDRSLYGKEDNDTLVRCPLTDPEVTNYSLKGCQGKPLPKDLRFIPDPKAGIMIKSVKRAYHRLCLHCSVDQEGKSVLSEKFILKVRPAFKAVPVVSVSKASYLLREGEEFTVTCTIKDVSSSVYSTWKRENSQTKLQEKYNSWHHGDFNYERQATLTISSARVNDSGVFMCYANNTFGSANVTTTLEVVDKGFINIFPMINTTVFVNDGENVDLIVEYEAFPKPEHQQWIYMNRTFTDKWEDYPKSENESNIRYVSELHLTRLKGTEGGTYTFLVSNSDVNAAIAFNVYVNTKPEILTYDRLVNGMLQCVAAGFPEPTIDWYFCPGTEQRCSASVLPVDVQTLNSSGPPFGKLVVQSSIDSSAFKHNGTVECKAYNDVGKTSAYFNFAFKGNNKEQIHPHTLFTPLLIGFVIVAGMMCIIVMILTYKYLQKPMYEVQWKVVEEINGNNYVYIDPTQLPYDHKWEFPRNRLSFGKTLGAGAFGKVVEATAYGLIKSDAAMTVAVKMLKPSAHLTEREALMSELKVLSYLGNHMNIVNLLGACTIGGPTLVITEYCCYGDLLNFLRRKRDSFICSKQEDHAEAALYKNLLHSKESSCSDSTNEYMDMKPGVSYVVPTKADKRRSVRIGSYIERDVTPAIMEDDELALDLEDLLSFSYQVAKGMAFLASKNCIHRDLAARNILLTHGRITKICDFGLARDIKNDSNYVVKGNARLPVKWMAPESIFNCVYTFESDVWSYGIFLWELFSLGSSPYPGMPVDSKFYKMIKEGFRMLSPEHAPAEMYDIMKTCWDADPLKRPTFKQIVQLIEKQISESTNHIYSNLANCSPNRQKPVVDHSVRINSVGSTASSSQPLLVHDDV

SMILES | IC50
Cc1n[nH]c(C(=O)Nc2cnc(Nc3cccc(N4CCOCC4)c3)nc2)c1C [P-2051, 3,4-dimethyl-N-[2-(3-morpholinoanilino)pyrimidin-5-yl]-1H-pyrazole-5-carboxamide] | 0.0001 to 1 µM
CCCS(=O)(=O)Nc1cccc(Nc2ncc(NC(=O)c3[nH]nc(C)c3C)cn2)c1 [P-2052, 3,4-dimethyl-N-[2-[3-(propylsulfonylamino)anilino]pyrimidin-5-yl]-1H-pyrazole-5-carboxamide] | 1 to 10 µM
Cc1n[nH]c(C(=O)Nc2cnc(Nc3cccc(NS(=O)(=O)c4ccccc4)c3)nc2)c1C [P-2053, N-[2-[3-(benzenesulfonamido)anilino]pyrimidin-5-yl]-3,4-dimethyl-1H-pyrazole-5-carboxamide] | 1 to 10 µM
CNC(=O)c1cccc(Nc2ncc(NC(=O)c3[nH]nc(C)c3C)cn2)c1 [P-2054, 3,4-dimethyl-N-[2-[3-(methylcarbamoyl)anilino]pyrimidin-5-yl]-1H-pyrazole-5-carboxamide] | 1 to 10 µM
CCOC(=O)Nc1cccc(Nc2ncc(NC(=O)c3[nH]nc(C)c3C)cn2)c1 [P-2055, ethyl N-[3-[[5-[(3,4-dimethyl-1H-pyrazole-5-carbonyl)amino]pyrimidin-2-yl]amino]phenyl]carbamate] | 1 to 10 µM
Cc1n[nH]c(C(=O)Nc2cnc3[nH]c(C4=CCN(S(C)(=O)=O)CC4)cc3c2)c1Cl [P-2057, 4-chloro-3-methyl-N-[2-(1-methylsulfonyl-3,6-dihydro-2H-pyridin-4-yl)-1H-pyrrolo[2,3-b]pyridin-5-yl]-1H-pyrazole-5-carboxamide] | 0.0001 to 1 µM
Cc1cc(C(=O)Nc2cnc3[nH]c(N4CCOCC4)cc3c2)[nH]n1 [P-2058, 3-methyl-N-(2-morpholino-1H-pyrrolo[2,3-b]pyridin-5-yl)-1H-pyrazole-5-carboxamide] | 10 to 200 µM
Cc1n[nH]c(C(=O)Nc2cnc3[nH]c(-c4cnc(N5CCN(C)CC5)nc4)cc3c2)c1C [P-2160, 3,4-dimethyl-N-[2-[2-(4-methylpiperazin-1-yl)pyrimidin-5-yl]-1H-pyrrolo[2,3-b]pyridin-5-yl]-1H-pyrazole-5-carboxamide] | 1 to 10 µM
Cc1n[nH]c(C(=O)Nc2cnc3[nH]nc(-c4cccc(N5CCN(C(=O)OC(C)(C)C)CC5)c4)c3c2)c1C [P-2162, tert-butyl 4-[3-[5-[(3,4-dimethyl-1H-pyrazole-5-carbonyl)amino]-1H-pyrazolo[3,4-b]pyridin-3-yl]phenyl]piperazine-1-carboxylate] | 0.0001 to 1 µM
Cc1n[nH]c(C(=O)Nc2cnc3[nH]c(-c4ccnc(C(C)C)c4)cc3c2)c1C [P-2163, N-[2-(2-isopropyl-4-pyridyl)-1H-pyrrolo[2,3-b]pyridin-5-yl]-3,4-dimethyl-1H-pyrazole-5-carboxamide] | 0.0001 to 1 µM
[2H]c1c([2H])c([2H])c(-c2cc3cc(NC(=O)c4[nH]nc(C)c4C)cnc3[nH]2)c([2H])c1[2H] [P-2164, 3,4-dimethyl-N-[2-(2,3,4,5,6-pentadeuteriophenyl)-1H-pyrrolo[2,3-b]pyridin-5-yl]-1H-pyrazole-5-carboxamide] | 1 to 10 µM
Cc1n[nH]c(C(=O)Nc2cnc3[nH]c(-c4c(C)nn(C)c4C)cc3c2)c1C [P-2165, 3,4-dimethyl-N-[2-(1,3,5-trimethylpyrazol-4-yl)-1H-pyrrolo[2,3-b]pyridin-5-yl]-1H-pyrazole-5-carboxamide] | 0.0001 to 1 µM
Cc1n[nH]c(C(=O)Nc2cnc3[nH]nc(-c4cccc(N5CCNCC5)c4)c3c2)c1C [P-2166, 3,4-dimethyl-N-[3-(3-piperazin-1-ylphenyl)-1H-pyrazolo[3,4-b]pyridin-5-yl]-1H-pyrazole-5-carboxamide] | 0.0001 to 1 µM
Cc1n[nH]c(C(=O)Nc2cnc3[nH]c(-c4c(C)n[nH]c4C)cc3c2)c1C [P-2167, N-[2-(3,5-dimethyl-1H-pyrazol-4-yl)-1H-pyrrolo[2,3-b]pyridin-5-yl]-3,4-dimethyl-1H-pyrazole-5-carboxamide] | 0.0001 to 1 µM
Cc1nn(C2COC2)cc1-c1cc2cc(NC(=O)c3[nH]nc(C)c3C)cnc2[nH]1 [P-2168, 3,4-dimethyl-N-[2-[3-methyl-1-(oxetan-3-yl)pyrazol-4-yl]-1H-pyrrolo[2,3-b]pyridin-5-yl]-1H-pyrazole-5-carboxamide] | 0.0001 to 1 µM
Cc1n[nH]c(C(=O)Nc2cnc3[nH]c(-c4ccc(F)c(-c5nn[nH]n5)c4)cc3c2)c1C [P-2174, N-[2-[4-fluoro-3-(2H-tetrazol-5-yl)phenyl]-1H-pyrrolo[2,3-b]pyridin-5-yl]-3,4-dimethyl-1H-pyrazole-5-carboxamide] | 1 to 10 µM
Cc1n[nH]c(C(=O)Nc2cnc3[nH]c(-c4cccnc4C(F)(F)F)cc3c2)c1C [P-2176, 3,4-dimethyl-N-[2-[2-(trifluoromethyl)-3-pyridyl]-1H-pyrrolo[2,3-b]pyridin-5-yl]-1H-pyrazole-5-carboxamide] | 10 to 200 µM
CCc1cc(-c2cc3cc(NC(=O)c4[nH]nc(C)c4C)cnc3[nH]2)ccn1 [P-2177, N-[2-(2-ethyl-4-pyridyl)-1H-pyrrolo[2,3-b]pyridin-5-yl]-3,4-dimethyl-1H-pyrazole-5-carboxamide] | 0.0001 to 1 µM
CCc1ccc(-c2cc3cc(NC(=O)c4[nH]nc(C)c4C)cnc3[nH]2)cn1 [P-2178, N-[2-(6-ethyl-3-pyridyl)-1H-pyrrolo[2,3-b]pyridin-5-yl]-3,4-dimethyl-1H-pyrazole-5-carboxamide] | 10 to 200 µM
Cc1n[nH]c(C(=O)Nc2cnc3[nH]c(-c4ccnc5c4OCCO5)cc3c2)c1C [P-2179, N-[2-(2,3-dihydro-[1,4]dioxino[2,3-b]pyridin-8-yl)-1H-pyrrolo[2,3-b]pyridin-5-yl]-3,4-dimethyl-H-pyrazole-5-carboxamide] | 1 to 10 µM
Cc1n[nH]c(C(=O)Nc2cnc3[nH]c(-c4ccccc4C(F)(F)F)cc3c2)c1C [P-2180, 3,4-dimethyl-N-[2-[2-(trifluoromethyl)phenyl]-1H-pyrrolo[2,3-b]pyridin-5-yl]-1H-pyrazole-5-carboxamide] | 1 to 10 µM
Cc1ccc(-c2cc3cc(NC(=O)c4[nH]nc(C)c4C)cnc3[nH]2)c(C)c1 [P-2181, N-[2-(2,4-dimethylphenyl)-1H-pyrrolo[2,3-b]pyridin-5-yl]-3,4-dimethyl-1H-pyrazole-5-carboxamide] | 10 to 200 µM
Cc1n[nH]c(C(=O)Nc2cnc3[nH]c(-c4ccccc4OC(F)(F)F)cc3c2)c1C [P-2182, 3,4-dimethyl-N-[2-[2-(trifluoromethoxy)phenyl]-1H-pyrrolo[2,3-b]pyridin-5-yl]-1H-pyrazole-5-carboxamide] | 1 to 10 µM
COc1cncc(-c2cc3cc(NC(=O)c4[nH]nc(C)c4C)cnc3[nH]2)c1 [P-2183, N-[2-(5-methoxy-3-pyridyl)-1H-pyrrolo[2,3-b]pyridin-5-yl]-3,4-dimethyl-1H-pyrazole-5-carboxamide] | 10 to 200 µM
Cc1cncc(-c2cc3cc(NC(=O)c4[nH]nc(C)c4C)cnc3[nH]2)c1 [P-2184, 3,4-dimethyl-N-[2-(5-methyl-3-pyridyl)-1H-pyrrolo[2,3-b]pyridin-5-yl]-1H-pyrazole-5-carboxamide] | 1 to 10 µM
Cc1n[nH]c(C(=O)Nc2cnc3[nH]c(-c4ccnc(N5CCN(S(C)(=O)=O)CC5)c4)cc3c2)c1C [P-2186, 3,4-dimethyl-N-[2-[2-(4-methylsulfonylpiperazin-1-yl)-4-pyridyl]-1H-pyrrolo[2,3-b]pyridin-5-yl]-1H-pyrazole-5-carboxamide] | 1 to 10 µM
